pIC50: −log10 of the molar value.
Biological target: human VR1 (Homo sapiens, UniProt Q8NER1)
Assay: Human VR1 antagonist assay (Ca2+ imaging)
Type: cell-based
Details: intracellular Ca2+ imaging (fura-2) in cells expressing human VR1 receptors; stimulus (capsaicin or acid) not given
Excerpt: VR1 antagonistic activity can be determined by the Ca^2+ imaging assay using human VR1 highly expressing cells. The cells that highly express human VR1 receptors are obtainable from several different conventional methods. The one standard method is cloning from human Dorsal Root Ganglion (DRG) or kidney according to the methods such as described in the journal article; Nature, 389, pp 816-824, 1997. Alternatively VR1 receptors highly expressing human keratinocytes are also known and published in the journal article (Biochemical and Biophysical Research Communications, 291, pp 124-129, 2002). […] Furthermore, the method to up regulate human VR1 gene, which is usually a silent gene or don't produce detectable level of VR1 receptors, is also available to obtain propriety cells. Such genetic modification method was described in detail; Nat. Biotechnol., 19, pp 440-445, 2001.
The cells that express human VR1 receptors were maintained in culture flask at 37° C. in an environment containing 5% CO2 until use in the assay. The intracellular Ca^2+ imaging assay to determine VR1 antagonistic activities were done by following procedures.
The culture medium was removed from the flask and fura-2/AM fluorescent calcium indicator was added to the flask at a concentration of 5 μM in the medium. The flask was placed in CO2 incubator and incubated for 1 hour. Then the cells expressing the human VR1 receptors were detached from the flask follow by washing with phosphate buffer saline, PBS(−) and re-suspended in assay buffer. The 80 μl of aliquot of cell suspension (3.75×10^5 cells/ml) was added to the assay plate and the cells were spun down by centrifuge (950 rpm, 20° C., 3 minutes).
The compounds of the examples were tested in the Human VR1 antagonist assay described above.
The capsaicin-induced changes in the intracellular calcium concentration were monitored using FDSS 6000 (Hamamatsu Photonics, Japan), a fluorometric imaging system. The cell suspension in Krebs-Ringer HEPES (KRH) buffer (115 mM NaCl, 5.4 mM KCl, 1 mM MgSO4, 1.8 mM CaCl2, 11 mM D-Glucose, 25 mM HEPES, 0.96 mM Na2HPO4, pH 7.3) were pre-incubated with varying concentrations of the test compounds or KRH buffer (buffer control) for 15 minutes at room temperature under the dark condition. Then capsaicin solution, which gives 300 nM in assay mixture, was automatically added to the assay plate by the FDSS 6000.
The acid-induced changes in the intracellular calcium concentration were monitored using FDSS 6000 (Hamamatsu Photonics, Japan), a fluorometric imaging system. The cell suspension in resting buffer (HBSS supplemented with 10 mM HEPES, pH 7.4) were pre-incubated with varying concentrations of the test compounds or resting buffer (buffer control) for 15 minutes at room temperature under the dark condition. The cells were automatically added the stimulating solution (HBSS supplemented with MES, final assay buffer pH5.8) by the FDSS 6000.
The monitoring of the changes in the fluorescence signals (λex=340 nm/380 nm, λem=510-520 nm) was initiated at 1 minute prior to the addition of capsaicin solution or acidic buffer and continued for 5 minute.

Chain of human VR1 (Q8NER1 whole entry): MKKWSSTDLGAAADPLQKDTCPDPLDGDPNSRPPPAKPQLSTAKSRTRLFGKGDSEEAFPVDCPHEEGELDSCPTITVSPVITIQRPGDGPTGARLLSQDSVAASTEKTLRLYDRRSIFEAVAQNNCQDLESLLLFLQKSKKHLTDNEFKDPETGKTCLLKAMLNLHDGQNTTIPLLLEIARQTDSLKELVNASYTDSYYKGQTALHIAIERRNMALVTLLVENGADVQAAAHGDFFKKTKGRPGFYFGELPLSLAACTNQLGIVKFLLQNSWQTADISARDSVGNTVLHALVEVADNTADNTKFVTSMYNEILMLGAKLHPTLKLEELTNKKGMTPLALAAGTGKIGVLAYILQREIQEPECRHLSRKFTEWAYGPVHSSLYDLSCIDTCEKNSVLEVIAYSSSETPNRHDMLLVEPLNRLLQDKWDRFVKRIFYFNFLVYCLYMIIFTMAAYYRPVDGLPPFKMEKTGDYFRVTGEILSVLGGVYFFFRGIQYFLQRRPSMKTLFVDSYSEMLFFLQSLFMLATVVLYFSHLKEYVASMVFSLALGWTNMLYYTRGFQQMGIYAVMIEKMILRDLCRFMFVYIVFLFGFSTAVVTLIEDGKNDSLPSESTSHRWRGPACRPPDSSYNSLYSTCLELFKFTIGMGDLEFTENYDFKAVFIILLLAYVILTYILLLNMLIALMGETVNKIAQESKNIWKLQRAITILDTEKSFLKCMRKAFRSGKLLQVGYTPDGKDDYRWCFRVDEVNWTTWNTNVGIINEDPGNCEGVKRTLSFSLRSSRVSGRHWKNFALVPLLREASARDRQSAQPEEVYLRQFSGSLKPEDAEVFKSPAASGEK

Point of comparison: `Cc1cc([C@@H](C)NC(=O)c2ccc3cc(C(C)(C)C)ccc3c2)c(Cl)cc1O` [Example A2, 6-tert-Butyl-N-[(1R)-1-(2-chloro-4-hydroxy-5-methylphenyl)ethyl]-2-naphthamide], pIC50 7.47. Against it:
- Oc1cc2c(cc1O)CN(C(=S)NCCc1ccc(Cl)cc1)CCC2 [Capsazepine, reference compound] — lower, 6.34 to 6.63
- COc1cc(Cl)c([C@@H](C)NC(=O)c2ccc3cc(C(C)(C)C)ccc3c2)cc1C [Example A1, 6-tert-Butyl-N-[(1R)-1-(2-chloro-4-methoxy-5-methylphenyl)ethyl]-2-naphthamide] — 0.44 log units lower, 7.03
- COc1cc(CNC(=O)c2ccc3cc(C(C)(C)C)ccc3n2)c(Cl)cc1O [Example B1] — 1.24 log units lower, 6.23
- Cc1cc([C@@H](C)NC(=O)c2cnc3cc(C(F)(F)F)ccc3c2)c(Cl)cc1O [Example C2, N-[(1R)-1-(2-Chloro-4-hydroxy-5-methylphenyl)ethyl]-7-(trifluoromethyl)quinoline-3-carboxamide] — 1.29 log units lower, 6.18
- COc1cc([C@@H](C)NC(=O)c2ccc3nc(C(C)(C)C)ccc3c2)c(Cl)cc1O [Example D1, 2-tert-Butyl-[(1R)-1-(2-chloro-4-hydroxy-5-methoxyphenyl)ethyl]quinoline-6-carboxamide] — 0.34 log units lower, 7.13
- COc1cc(CNC(=O)c2ccc3nc(C(C)(C)C)ccc3c2)c(Cl)cc1O [Example D2, 2-tert-Butyl-N-(2-chloro-4-hydroxy-5-methoxybenzyl)quinoline-6-carboxamide] — 0.72 log units lower, 6.75
- COc1cc(CNC(=O)c2ccc3nc(C(C)(C)C)ccc3c2)c(Br)cc1O [Example D3, N-(2-Bromo-4-hydroxy-5-methoxybenzyl)-2-tert-butylquinoline-6-carboxamide] — 1.08 log units lower, 6.39
- COc1cc(Cl)c([C@@H](C)NC(=O)c2ccc3nc(C(C)(C)C)ccc3c2)cc1C [Example D4, 2-tert-Butyl-N-[(1R)-1-(2-chloro-4-methoxy-5-methylphenyl)ethyl]quinoline-6-carboxamide] — 0.90 log units lower, 6.57
- Cc1cc([C@@H](C)NC(=O)c2ccc3nc(C(C)(C)C)ccc3c2)c(Cl)cc1O [Example D5, 2-tert-butyl-N-[(1R)-1-(2-chloro-4-hydroxy-5-methylphenyl)ethyl]5 quinoline-6-carboxamide] — 0.99 log units lower, 6.48
- Cc1cc([C@H](C)NC(=O)c2ccc3nc(C(C)(C)C)ccc3c2)c(Cl)cc1O [Example D7, 2-tert-Butyl-N-[(1S)-1-(2-chloro-4-hydroxy-5-methylphenyl)ethyl]quinoline-6-carboxamide] — within 0.2 log units, 7.50
- C[C@@H](NC(=O)c1ccc2nc(C(C)(C)C)ccc2c1)c1ccc(CO)cc1 [Example D8, 2-tert-Butyl-N-{(1R)-1-[4-(hydroxymethyl)phenyl]ethyl}quinoline-6-carboxamide] — 1.11 log units lower, 6.36
- Cc1cc(CNC(=O)c2ccc3nc(C(C)(C)C)ccc3c2)c(Cl)cc1O [Example D10, 2-tert-Butyl-N-(2-chloro-4-hydroxy-5-methylbenzyl)quinoline-6-carboxamide] — 0.96 log units lower, 6.51
- Cc1cc(CNC(=O)c2ccc3nc(C(C)(C)C)ccc3c2)c(F)cc1O [Example D11, 2-tert-Butyl-N-(2-fluoro-4-hydroxy-5-methylbenzyl)quinoline-6-carboxamide] — 1.17 log units lower, 6.30
- COc1cc(Cl)c([C@@H](C)NC(=O)c2ccc3nc(C(C)(C)C(F)(F)F)ccc3c2)cc1C [Example D12, N-[(1R)-1-(2-Chloro-4-methoxy-5-methylphenyl)ethyl]-2-(2,2,2-trifluoro-1,1-dimethylethyl)quinoline-6-carboxamide] — 0.73 log units lower, 6.74
- Cc1cc([C@@H](C)NC(=O)c2ccc3nc(C(C)(C)C(F)(F)F)ccc3c2)c(Cl)cc1O [Example D13, N-[(1R)-1-(2-Chloro-4-hydroxy-5-methylphenyl)ethyl]-2-(2,2,2-trifluoro-1,1-dimethylethyl)quinoline-6-carboxamide] — within 0.2 log units, 7.50
- Cc1cc(C(C)NC(=O)c2ccc3nc(C(C)(C)C(F)(F)F)ccc3c2)c(F)cc1CO (stereo not drawn) [Example D14, N-{1-[2-Fluoro-4-(hydroxymethyl)-5-methylphenyl]ethyl}-2-(2,2,2-trifluoro-1,1-dimethylethyl)quinoline-6-carboxamide] — 0.29 log units lower, 7.18
- COc1cc([C@@H](C)NC(=O)c2ccc3nc(C(C)(C)C)ccc3c2)ccc1O [Example D15, 2-tert-Butyl-N-[(1R)-1-(4-hydroxy-3-methoxyphenyl)ethyl]quinoline-6-carboxamide] — 0.87 log units lower, 6.60

From patent US8158650B2, “Substituted phenylmethyl bicyclocarboxyamide compounds” (Pfizer Inc., priority 2006, dated 2012)
